In patent publication US10023590B2, “Substituted pyridine compounds having herbicidal activity” (BASF SE, priority 2014, dated 2018):
Where two headings read alike, the source gives them in different places.

What was measured:
Type in all cases: in vivo
Zea mays = assay: Greenhouse post-emergence herbicidal activity on crop ZEAMX (corn, maize); design: key: 0 = no damage/normal growth, 100 = no emergence or complete destruction; details: ZEAMX (corn, crop), scale 0 to 100
In short: (§1)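 Post-emergence greenhouse test: plants in loamy sand (~3.0% humus) grown to 3-15 cm, then treated with active ingredient suspended or emulsified in water. Kept at 10-25° C or 20-35° C depending on species for 2 to 4 weeks; damage scored 0 (none) to 100 (complete destruction of aerial parts).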

Stellaria media = assay: Greenhouse post-emergence herbicidal activity, STEME; details: scale 0 to 100
Excerpt: (§2) The culture containers used were plastic flowerpots containing loamy sand with approximately 3.0% of humus as the substrate. The seeds of the test plants were sown separately for each species.
(§3) For the post-emergence treatment, the test plants were first grown to a height of 3 to 15 cm, depending on the plant habit, and only then treated with the active ingredients which had been suspended or emulsified in water. For this purpose, the test plants were either sown directly and grown in the same containers, or they were first grown separately as seedlings and transplanted into the test containers a few days prior to treatment.
(§4) Depending on the species, the plants were kept at 10-25° C. or 20-35° C., respectively.
(§5) The test period extended over 2 to 4 weeks. During this time, the plants were tended, and their response to the individual treatments was evaluated.
(§6) Evaluation was carried out using a scale from 0 to 100. 100 means no emergence of the plants, or complete destruction of at least the aerial moieties, and 0 means no damage, or normal course of growth. A good herbicidal activity is given at values of at least 70 and a very good herbicidal activity is given at values of at least 85.

Brachiaria decumbens = assay: Greenhouse post-emergence herbicidal activity, BRADC; details: 0.125 kg/ha, scale 0 to 100
Excerpt: as §2, §3, §4, §5, §6

Amaranthus retroflexus = assay: Greenhouse post-emergence herbicidal activity, AMARE; details: for pest or weed control at 31 g/ha: 0.031 kg/ha; for pest or weed control at 63 g/ha: 0.063 kg/ha; for pest or weed control at 125 g/ha: 0.125 kg/ha
In short: as §1

Abutilon theophrasti = assay: Greenhouse post-emergence herbicidal activity, ABUTH
In short: as §1

Echinocloa crus-galli = assay: Greenhouse post-emergence herbicidal activity, ECHCG; details: Echinochloa crus-galli
In short: as §1

Capsella bursa-pastoris = assay: Greenhouse post-emergence herbicidal activity, CAPBP; details: scale 0 to 100
Excerpt: as §2, §3, §4, §5, §6

Kochia scoparia = assay: Greenhouse post-emergence herbicidal activity, KCHSC; details: scale 0 to 100
Excerpt: as §2, §3, §4, §5, §6

Cirsium arvense = assay: Greenhouse post-emergence herbicidal activity, CIRAR; details: for pest or weed control at 31 g/ha: 0.031 kg/ha
In short: as §1

Polygonum persicaria = assay: Greenhouse post-emergence herbicidal activity, POLPE; details: 0.031 kg/ha, scale 0 to 100
Excerpt: as §2, §3, §4, §5, §6

Eriochloa villosa = assay: Greenhouse post-emergence herbicidal activity, ERBVI; details: scale 0 to 100
Excerpt: as §2, §3, §4, §5, §6

Setaria viridis = assay: Greenhouse post-emergence herbicidal activity, SETVI; details: 2 kg/ha, scale 0 to 100
Excerpt: as §2, §3, §4, §5, §6

Chenopodium album = assay: Greenhouse post-emergence herbicidal activity, CHEAL; details: scale 0 to 100; for pest or weed control at 31 g/ha: 0.031 kg/ha; for pest or weed control at 63 g/ha: 0.063 kg/ha; for pest or weed control at 125 g/ha: 0.125 kg/ha
In short: as §1

Brachiaria deflexa = assay: Greenhouse post-emergence herbicidal activity, BRADE; details: 0.031 kg/ha, scale 0 to 100
Excerpt: as §2, §3, §4, §5, §6

Oryza sativa = assay: Greenhouse post-emergence herbicidal activity on crop ORYSA (rice); details: ORYSA (rice, crop), scale 0 to 100
In short: as §1

Commelina benghalensis = assay: Greenhouse post-emergence herbicidal activity, COMBE; details: 0.125 kg/ha, scale 0 to 100
Excerpt: as §2, §3, §4, §5, §6

Sesbania herbacea = assay: Greenhouse post-emergence herbicidal activity, SEBEX; details: 0.125 kg/ha, scale 0 to 100
Excerpt: as §2, §3, §4, §5, §6

Ipomoea hederacea = assay: Greenhouse post-emergence herbicidal activity, IPOHE; details: 0.125 kg/ha, scale 0 to 100
Excerpt: as §2, §3, §4, §5, §6

Polygonum aviculare = assay: Greenhouse post-emergence herbicidal activity, POLAV; details: 0.25 kg/ha, scale 0 to 100
Excerpt: as §2, §3, §4, §5, §6

Ambrosia artemisiifolia = assay: Greenhouse post-emergence herbicidal activity, AMBEL; details: 0.25 kg/ha, scale 0 to 100
Excerpt: as §2, §3, §4, §5, §6

Setaria faberi = assay: Greenhouse post-emergence herbicidal activity, SETFA; details: scale 0 to 100
Excerpt: as §2, §3, §4, §5, §6

Veronica arvensis = assay: Greenhouse post-emergence herbicidal activity, VERAR; details: 0.031 kg/ha, scale 0 to 100
Excerpt: as §2, §3, §4, §5, §6

Brachiaria plantaginea = assay: Greenhouse post-emergence herbicidal activity, BRAPL; details: scale 0 to 100
Excerpt: as §2, §3, §4, §5, §6

[1] = ABUTH, 2 kg/ha, scale 0 to 100, read-out: Herbicidal activity
[2] = ECHCG, 2 kg/ha, scale 0 to 100, read-out: Herbicidal activity
[3] = AMARE, 2 kg/ha, scale 0 to 100, read-out: Herbicidal activity
[4] = CIRAR, 0.063 kg/ha, scale 0 to 100, read-out: Herbicidal activity

Compound | Herbicidal activity (Zea mays; 0.063 kg/ha) | Herbicidal activity (Capsella bursa-pastoris; 0.125 kg/ha) | Herbicidal activity (Kochia scoparia; 0.063 kg/ha) | Herbicidal activity (Zea mays; 0.031 kg/ha) | Herbicidal activity (Zea mays; 0.125 kg/ha) | Herbicidal activity (Eriochloa villosa; 0.063 kg/ha) | pest or weed control at 31 g/ha (Amaranthus retroflexus; AMARE, scale 0 to 100) | pest or weed control at 63 g/ha (Amaranthus retroflexus; AMARE, scale 0 to 100) | pest or weed control at 125 g/ha (Amaranthus retroflexus; AMARE, scale 0 to 100) | pest or weed control at 2000 g/ha (Abutilon theophrasti; [1]) | Herbicidal activity (Setaria viridis) | pest or weed control at 2000 g/ha (Echinocloa crus-galli; [2]) | pest or weed control at 31 g/ha (Chenopodium album) | pest or weed control at 2000 g/ha (Amaranthus retroflexus; [3]) | pest or weed control at 63 g/ha (Chenopodium album) | pest or weed control at 125 g/ha (Chenopodium album) | Herbicidal activity (Oryza sativa; 0.125 kg/ha) | pest or weed control at 31 g/ha (Cirsium arvense; CIRAR, scale 0 to 100) | pest or weed control at 63 g/ha (Cirsium arvense; [4]) | Herbicidal activity (Oryza sativa; 0.063 kg/ha) | further results
CN(c1c(Cl)ccc(C2=C(O)c3ncccc3C(C)(C)S2(=O)=O)c1Cl)S(C)(=O)=O [I-2, N-[2,6-dichloro-3-(8-hydroxy-5,5-dimethyl-6,6-dioxo-thiopyrano[4,3-b]pyridin-7-yl)phenyl]-N-methyl-methanesulfonamide] | 5 | 100 | 98 | – | – | – | – | – | – | – | – | – | – | – | – | – | – | – | – | – | Herbicidal activity (Stellaria media; 0.031 kg/ha): 100; Herbicidal activity (Stellaria media; 0.063 kg/ha): 100; Herbicidal activity (Brachiaria decumbens): 100; pest or weed control at 2000 g/ha (Amaranthus retroflexus; read-out: Herbicidal activity): 100%; pest or weed control at 2000 g/ha (Abutilon theophrasti; read-out: Herbicidal activity): 100%; pest or weed control at 2000 g/ha (Echinocloa crus-galli; read-out: Herbicidal activity): 100%; Herbicidal activity (Kochia scoparia; 0.031 kg/ha): 95; Herbicidal activity (Kochia scoparia; 0.125 kg/ha): 100; pest or weed control at 63 g/ha (Cirsium arvense; read-out: Herbicidal activity): 98%; Herbicidal activity (Polygonum persicaria): 98
CCN(c1c(Cl)ccc(C2=C(O)c3ncccc3C(C)(C)S2(=O)=O)c1Cl)S(C)(=O)=O [I-9, N-[2,6-dichloro-3-(8-hydroxy-5,5-dimethyl-6,6-dioxo-thiopyrano[4,3-b]pyridin-7-yl)phenyl]-N-ethyl-methanesulfonamide] | 10 | – | 100 | 5 | 50 | 98 | 98% | 98% | 98% | 98% | 100 | 100% | 98% | – | – | – | – | – | – | – | pest or weed control at 125 g/ha (Echinocloa crus-galli; ECHCG, 0.125 kg/ha, scale 0 to 100): 98%; Herbicidal activity (Brachiaria deflexa): 100; pest or weed control at 125 g/ha (Cirsium arvense; CIRAR, 0.125 kg/ha, scale 0 to 100): 100%
CC(C)N(c1c(Cl)ccc(C2=C(O)c3ncccc3C(C)(C)S2(=O)=O)c1Cl)S(C)(=O)=O [I-11, N-[2,6-dichloro-3-(8-hydroxy-5,5-dimethyl-6,6-dioxo-thiopyrano[4,3-b]pyridin-7-yl)phenyl]-N-isopropyl-methanesulfonamide] | – | 100 | – | 0 | – | – | – | – | – | – | 100 | 100% | 98% | 100% | 98% | 100% | 20 | 90% | 95% | – | Herbicidal activity (Capsella bursa-pastoris; 0.031 kg/ha): 98; Herbicidal activity (Capsella bursa-pastoris; 0.063 kg/ha): 100; Herbicidal activity (Commelina benghalensis): 100
CN(C)S(=O)(=O)Oc1c(Cl)ccc(C2=C(O)c3ncccc3C(C)(C)S2(=O)=O)c1Cl [I-23] | 0 | – | – | 0 | 15 | – | – | 70% | – | – | – | – | 85% | – | 95% | 98% | 0 | 75% | 80% | 0 | Herbicidal activity (Sesbania herbacea): 98; pest or weed control at 1000 g/ha (Amaranthus retroflexus; AMARE, 1 kg/ha, scale 0 to 100): 100%; pest or weed control at 1000 g/ha (Abutilon theophrasti; ABUTH, 1 kg/ha, scale 0 to 100): 80%; Herbicidal activity (Ipomoea hederacea): 95; pest or weed control at 1000 g/ha (Echinocloa crus-galli; ECHCG, 1 kg/ha, scale 0 to 100): 95%; Herbicidal activity (Oryza sativa; 0.031 kg/ha): 0
CC1(C)c2cccnc2C(O)=C(c2ccc(Cl)c(N(C3CC3)S(C)(=O)=O)c2Cl)S1(=O)=O [I-25, N-cyclopropyl-N-[2,6-dichloro-3-(8-hydroxy-5,5-dimethyl-6,6-dioxo-thiopyrano[4,3-b]pyridin-7-yl)phenyl]methanesulfonamide] | – | 95 | – | 5 | 20 | – | 95% | 98% | 98% | – | – | – | – | – | 95% | – | – | 95% | – | 35 | Herbicidal activity (Polygonum aviculare): 100; Herbicidal activity (Ambrosia artemisiifolia): 100; pest or weed control at 250 g/ha (Amaranthus retroflexus; AMARE, 0.25 kg/ha, scale 0 to 100): 98%; Herbicidal activity (Setaria faberi; 0.031 kg/ha): 95; Herbicidal activity (Setaria faberi; 0.063 kg/ha): 95; Herbicidal activity (Setaria faberi; 0.125 kg/ha): 95; Herbicidal activity (Oryza sativa; 0.25 kg/ha): 35
Cc1c(C2=C(O)c3ncccc3CS2(=O)=O)ccc(Cl)c1N(C)S(C)(=O)=O [I-26, N-[6-chloro-3-(8-hydroxy-6,6-dioxo-5H-thiopyrano[4,3-b]pyridin-7-yl)-2-methyl-phenyl]-N-methyl-methanesulfonamide] | 15 | – | – | – | 15 | 95 | – | 85% | 90% | 100% | – | 100% | – | 100% | – | 98% | 45 | – | – | – | Herbicidal activity (Veronica arvensis): 90; Herbicidal activity (Eriochloa villosa; 0.031 kg/ha): 90; Herbicidal activity (Eriochloa villosa; 0.125 kg/ha): 95; Herbicidal activity (Brachiaria plantaginea; 0.031 kg/ha): 90; Herbicidal activity (Brachiaria plantaginea; 0.063 kg/ha): 90
